The record followed here is patent publication US20040121965A1, “Method of treating resistant tumors” (Wyeth Holdings Corporation, priority 2002, published 2004).

One test relates to KB-8-5 (MDR1+). The test can be described thus: Cell survival assay (SRB), KB-8-5 (MDR1+). The following applies: for IC50: Homo sapiens.
The test system of a further test is KB-V1 (MDR1++). The test can be described thus: Cell survival assay (SRB), KB-V1 (MDR1++). To be noted: for IC50: Homo sapiens.
The test system of a further test is KB-3-1. The test can be described thus: Cell survival assay (SRB), KB-3-1. The test is classed as cell-based, human. The following applies: Homo sapiens. In outline:
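Growth inhibition (IC50) is derived from SRB-measured protein content after a 3-day, duplicate exposure to serially diluted compound.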

Where [1] appears, read: MDR1, read-out: In vitro IC50 (nM) KB85.
The mark [2] stands for this setting: read-out: In vitro IC50 (nM) KBV1.
The mark [3] stands for this setting: KB 3-1, KB-3-1 cells (paclitaxel-sensitive parent), read-out: In vitro IC50 (nM) KB-3-1.

Like-named read-outs stand apart in the source and are kept apart here.

On to `CC(C)C[C@H](N)C(=O)N[C@H](C(=O)N[C@H](CC(C)C(=O)O)C(C)C)C(C)(C)C` (stereo partly drawn) [Example 138, (4R)4-[((2S)-2-{[(2S)-2-amino4-methylpentanoyl]amino}-3,3-dimethylbutanoyl)amino]-2,5-dimethylhexanoic Acid], for which the 50% inhibitory concentration (IC50) in the test with KB-8-5 (MDR1+) (setting [1]) was 1510 nM; with KB-V1 (MDR1++) (setting [2]), no less than 3000 nM; in the test on KB-3-1 (KB-3-1 cells (paclitaxel-sensitive parent), read-out: In vitro IC50 (nM) KB-3-1), 692 nM. For the same compound, the “Ratio KB85/KB” value with KB-8-5 (MDR1+) (ratio of IC50 in KB85 to IC50 in KB-3-1) is on record as 2.2. Further, the “Ratio KBV1/KB” value in the test on KB-V1 (MDR1++) (ratio of IC50 in KBV1 to IC50 in KB-3-1) turned out to be 4.3.
`CN[C@@H](C(=O)N[C@H](C(=O)N(C)[C@H](/C=C(\C)C(=O)O)C(C)C)C(C)(C)C)C(C)(C)c1ccc(Cl)cc1` [Example 6, 4-Chloro-N,β,β-trimethyl-D-phenylalanyl-N^1-[(1S,2E)-3-carboxy-1-isopropyl-2-butenyl]-N^1,3-dimethyl-L-valinamide]: the “Ratio KB85/KB” value in the test with KB-8-5 (MDR1+) was determined as 2.0. Further, the values for the 50% inhibitory concentration (IC50) in the test on KB-8-5 (MDR1+) (setting [1]), in the test with KB-V1 (MDR1++) (setting [2]) and with KB-3-1 (setting [3]) were 17.4 nM, 1380 nM and 8.5 nM, respectively. The “Ratio KBV1/KB” value with KB-V1 (MDR1++) was determined as 162.4.
The corresponding values for `CCOC(=O)/C(C)=C/[C@H](C(C)C)N(C)C(=O)[C@@H](NC(=O)[C@@H](NC)C(C)(C)c1cccc(C)c1)C(C)(C)C` [Example 7a, N,β,β,3-Tetramethyl-L-phenylalanyl-N^1-[(1S,2E)4-ethoxy-1-isopropyl-3-methyl-4-oxo-2-butenyl]-N^1,3-dimethyl-L-valinamide] are 24.0, 525 nM, 2410 nM, 21.9 nM and 110.0.
In the case of `CN[C@@H](C(=O)N[C@H](C(=O)N(C)[C@H](/C=C(\C)C(=O)O)C(C)C)C(C)(C)C)C(C)(C)c1cc(C)cc(C)c1` [Example 18, N,β,β,3,5-Pentamethyl-D-phenylalanyl-N^1-[(1S,2E)-3-carboxy-1-isopropyl-2-butenyl]-N^1,3-dimethyl-L-valinamide], the “Ratio KB85/KB” value in the test on KB-8-5 (MDR1+) turned out to be 2.4. In addition, the 50% inhibitory concentration (IC50) was 17.4 nM with KB-8-5 (MDR1+) (setting [1]), 575 nM in the test with KB-V1 (MDR1++) (setting [2]) and 7.2 nM in the test on KB-3-1 (setting [3]). Besides, the “Ratio KBV1/KB” value in the test on KB-V1 (MDR1++) is 79.9.
As to `CNC(=O)/C(C)=C/[C@H](C(C)C)N(C)C(=O)[C@@H](NC(=O)[C@@H](NC)C(C)(C)c1ccccc1)C(C)(C)C` [Example 108, (E,4S)-4-[((2S)-3,3-dimethyl-2-{[(2S)-3-methyl-2-(methylamino)-3-phenylbutanoyl]amino}butanoyl)(methyl)amino]-N,2,5-trimethyl-2-hexenamide], in the test on KB-8-5 (MDR1+), the “Ratio KB85/KB” value is reported as 1.9. The IC50 in the test on KB-8-5 (MDR1+) (setting [1]) came out at 129 nM; with KB-V1 (MDR1++) (setting [2]), 1590 nM; with KB-3-1 (setting [3]), 68.3 nM. Also, the “Ratio KBV1/KB” value in the test on KB-V1 (MDR1++) was 23.3.
Regarding `CN[C@H](C(=O)N[C@H](C(=O)N(C)[C@@H](/C=C(\C)C(=O)O)C(C)C)C(C)(C)C)C(C)(C)c1ccccc1` [Example 157, N,β,β-trimethyl-L-phenylalanyl-N^1-[(1R,2E)-3-carboxy-1-isopropylbut-2-enyl]-N^1,3-dimethyl-L-valinamide], the “Ratio KB85/KB” value in the test on KB-8-5 (MDR1+) was found to be 2.7. Also, the IC50 is 1650 nM with KB-8-5 (MDR1+) (setting [1]); greater than 3000 nM in the test with KB-V1 (MDR1++) (setting [2]); 605 nM in the test with KB-3-1 (KB 3-1, read-out: In vitro IC50 (nM) KB-3-1). Further, in the test with KB-V1 (MDR1++), the “Ratio KBV1/KB” value was 5.0.
On to `CN[C@@H](C(=O)N[C@H](C(=O)N(C)[C@H](/C=C(\C)C(=O)O)C(C)C)C(C)(C)C)C(C)(C)c1ccc(/C=C/c2ccccc2)cc1` [Example 147, N,β,β-trimethyl4-[(E)-2-phenylvinyl]-D-phenylalanyl-N^1-[(1S,2E)-3-carboxy-1-isopropylbut-2-enyl]-N^1,3-dimethyl-L-valinamide], for which the “Ratio KB85/KB” value in the test on KB-8-5 (MDR1+) was found to be 1.7. Besides, the results for the IC50 with KB-8-5 (MDR1+) (setting [1]), with KB-V1 (MDR1++) (setting [2]) and in the test with KB-3-1 (setting [3]) were 20 nM, 620 nM and 11.6 nM, respectively. In addition, the “Ratio KBV1/KB” value in the test on KB-V1 (MDR1++) was 53.4.
`CN[C@H](C(=O)N[C@H](C(=O)N(C)[C@H](/C=C(\C)C(=O)O)C(C)C)C(C)(C)C)C(C)(C)c1cn(C)c2ccccc12` [Hemiasterlin, hemiasterlin, reference compound]: the “RR, relative resistance” value in the test on KB-8-5 (MDR1+) worked out at 3.2; in the test on KB-V1 (MDR1++), 239. Further, the IC50 with KB-8-5 (MDR1+) (MDR1, read-out: KB-8-5 (MDR1+) IC50, nM (N)) came out at 1 nM; in the test with KB-V1 (MDR1++) (read-out: KB-V1 (MDR1++) IC50, nM (N)), 76.1 nM; in the test with KB-3-1 (KB 3-1, KB-3-1 parental, Table 3, read-out: KB-3-1 IC50, nM (N)), 0.319 ± 0.095 nM.
Regarding `CN[C@H](C(=O)N[C@H](C(=O)N(C)[C@H](/C=C(\C)C(=O)OCc1cccs1)C(C)C)C(C)(C)C)C(C)(C)c1ccccc1` [Example 115, N,β,β-trimethyl-L-phenylalanyl-N^1-[(1S,2E)-1-isopropyl-3-methyl-4-oxo-4-(thien-2-ylmethoxy)but-2-enyl]-N^1,3-dimethyl-L-valinamide], the “Ratio KB85/KB” value in the test on KB-8-5 (MDR1+) is 46.2. The half-maximal inhibitory concentration (IC50) was 231 nM in the test on KB-8-5 (MDR1+) (setting [1]), greater than 3000 nM in the test on KB-V1 (MDR1++) (read-out: In vitro IC50 KBV1) and 5 nM with KB-3-1 (setting [3]).
Take `CN[C@H](C(=O)N[C@H](C(=O)N(C)[C@H](/C=C(\C)C(=O)O)C(C)C)C(C)(C)C)C(C)(C)c1ccc(C(C)(C)C)cc1` [Example 30, 4-tert-Butyl-N,β,β-trimethylphenylalanyl-N^1-[(1S,2E)-3-carboxy-1-isopropyl-2-butenyl]-N^1,3-dimethyl-L-valinamide]: in the test on KB-8-5 (MDR1+), the “Ratio KB85/KB” value is listed as 1.7. The 50% inhibitory concentration (IC50) in the test on KB-8-5 (MDR1+) (setting [1]) was 5.1 nM; in the test on KB-V1 (MDR1++) (setting [2]), 108 nM; in the test on KB-3-1 (setting [3]) it was 3 nM. Besides, the “Ratio KBV1/KB” value with KB-V1 (MDR1++) is recorded as 35.9.
The like results for `CN[C@@H](C(=O)N[C@H](C(=O)N(C)[C@H](/C=C(\C)C(=O)O)C(C)C)C(C)(C)C)C(C)(C)c1ccsc1` [Example 24, N-Methyl-3-thien-3-yl-D-valyl-N^1-[(1S,2E)-3-carboxy-1-isopropylbut-2-enyl]-N^1,3-dimethyl-L-valinamide] were, in that order, 2.4, 22.4 nM, 1740 nM, 9.5 nM and 182.9.
In the case of `C=CC[C@@H](/C=C(\C)C(=O)O)N(C)C(=O)[C@@H](NC(=O)[C@@H](NC)C(C)(C)c1ccccc1)C(C)(C)C` [Example 119, N,β,β-trimethyl-L-phenylalanyl-N^1-[(1S,2E)-1-allyl-3-carboxybut-2-enyl]-N^1,3-dimethyl-L-valinamide], the “Ratio KB85/KB” value in the test with KB-8-5 (MDR1+) is listed as 3.0. Moreover, the IC50 is 164 nM in the test with KB-8-5 (MDR1+) (setting [1]), greater than 3000 nM in the test with KB-V1 (MDR1++) (read-out: In vitro IC50 KBV1) and 55 nM in the test on KB-3-1 (setting [3]).
As for `CCCCCC(C)(C)[C@H](NC)C(=O)N[C@H](C(=O)N(C)[C@H](/C=C(\C)C(=O)O)C(C)C)C(C)(C)C` [Example 50, (2E,4S)-4-[((2S)-2-{[(2S)-3,3-dimethyl-2-(methylamino)octanoyl]amino}-3,3-dimethylbutanoyl)(methyl)amino]-2,5-dimethyl-2-hexenoic acid], the “Ratio KB85/KB” value in the test with KB-8-5 (MDR1+) stood at 2.2. The half-inhibitory concentration (IC50) was 19 nM in the test on KB-8-5 (MDR1+) (setting [1]), 513 nM in the test with KB-V1 (MDR1++) (setting [2]) and 8.7 nM with KB-3-1 (setting [3]). Further, the “Ratio KBV1/KB” value with KB-V1 (MDR1++) is 58.9.
As for `CNC(C(=O)NC(C)C(=O)N(C)C(C=C(C)C(=O)O)C(C)C)C(C)(C)c1ccccc1.O=C(O)C(F)(F)F` (centres unmarked) [Example 103, 2,5-dimethyl-4-{methyl-[2-(3-methyl-2-methylamino-3-phenyl-butyrylamino)-propionyl]-amino}-hex-2-enoic Acid Trifluoroacetic Acid], the “Ratio KB85/KB” value in the test on KB-8-5 (MDR1+) was found to be 13.3. Also, the IC50 with KB-8-5 (MDR1+) (setting [1]) was 2260 nM; in the test on KB-V1 (MDR1++) (setting [2]), 2610 nM; in the test on KB-3-1 (setting [3]) it was 170 nM. In addition, the “Ratio KBV1/KB” value with KB-V1 (MDR1++) worked out at 15.3.
As for `CC/C(=C\[C@H](CC(C)C)N(C)C(=O)[C@@H](NC(=O)[C@@H](NC)C(C)(C)c1ccccc1)C(C)(C)C)C(=O)O` [Example 76, N,β,β-Trimethyl-L-phenylalanyl-N^1-[(1S,2E)-3-carboxy-1-isobutyl-2-pentenyl]-N^1,3-dimethyl-L-valinamide], the “Ratio KB85/KB” value in the test on KB-8-5 (MDR1+) came out at 2.4. The results for the IC50 with KB-8-5 (MDR1+) (setting [1]), in the test on KB-V1 (MDR1++) (setting [2]) and in the test with KB-3-1 (setting [3]) were 169 nM, no less than 3000 nM and 70.8 nM, respectively. In addition, the “Ratio KBV1/KB” value in the test on KB-V1 (MDR1++) is reported as 42.4.
The corresponding values for `CCC(CC)(c1ccccc1)[C@H](NC)C(=O)N[C@H](C(=O)N(C)[C@H](/C=C(\C)C(=O)O)C(C)C)C(C)(C)C` [Example 125, β,β-diethyl-N-methyl-L-phenylalanyl-N^1-[(1S,2E)-3-carboxy-1-isopropylbut-2-enyl]-N^1,3-dimethyl-L-valinamide] are 2.1, 18 nM, 479 nM, 8.5 nM and 56.4.
Regarding `CN[C@@H](C(=O)N[C@H](C(=O)N(C)[C@H](/C=C(\C)C(=O)O)C(C)C)C(C)(C)C)C(C)(C)c1ccc(C)c(C)c1` [Example 15, N,β,β,3,4-Pentamethyl-D-phenylalanyl-N^1-[(1S,2E)-3-carboxy-1-isopropyl-2-butenyl]-N^1,3-dimethyl-L-valinamide], the “Ratio KB85/KB” value in the test on KB-8-5 (MDR1+) stood at 1.6. For the same compound, the figures for the IC50 with KB-8-5 (MDR1+) (setting [1]), in the test with KB-V1 (MDR1++) (setting [2]) and in the test with KB-3-1 (setting [3]) were 21.4 nM, 1200 nM and 13.8 nM, respectively. Further, the “Ratio KBV1/KB” value in the test with KB-V1 (MDR1++) is listed as 87.1.
